This series is described as follows: Solubility of initiator in NCO/TEGDMA resin. Type of series: physicochemical. Conditions: not soluble above about 2%; percentages by weight. An excerpt: NCO/TEGDMA is a resin blend described in copending SN 040, 636 and used as illustrated in U.S. patent 4,514,174 and comprises a blend of NCO, the reaction product of hexamethylene diisocyanate (HMDI) and Bis-GMA [drawing 4] , and triethyleneglycol dimethacrylate (TEGDMA). At concentrations above about 2%, the benzoyl di (2,6 dimethylphenyl) phosphonate is not soluble in NCO/-TEGDMA resin. When used with an NCO/-TEGDMA resin in concentrations up to about 2%, however, the resin can be cured to a clear, hard film.

SMILES strings stand for the structures.

These results are taken from patent EP0336417A2, “Phosphonate initiators for light cured compositions” (DENTSPLY INTERNATIONAL, INC., priority 1988, dated 1989).

Take `Cc1cccc(C)c1OP(=O)(Oc1c(C)cccc1C)C(=O)c1ccccc1` [Benzoyl di-(2,6-dimethylphenyl) phosphonate]: the “concentration up to which soluble in NCO/TEGDMA resin” value is “about 2%”.
